Source: the NIST ThermoML archive (doi:10.1016/j.fluid.2011.02.010)
Numbers after ± are expanded uncertainties.

Experiment: xn = mol fraction of the nth substance listed
Conditions: 101 kPa, Liquid; for speed of sound: Frequency=2 MHz

CC[NH2+]CC.O=S(=O)([O-])O [diethylammonium hydrogen sulfate] + C[S+](C)[O-]
Conditions | mass density [kg/m3] | speed of sound [m/s] | viscosity [mPa·s]
298.15 K, x1 = 0.0569 | – | 1486 ± 9 | 2.94 ± 0.24
298.15 K, x1 = 0.1196 | – | 1476 ± 9 | 4.13 ± 0.32
298.15 K, x1 = 0.189 | – | 1466 ± 9 | 5.55 ± 0.41
298.15 K, x1 = 0.2461 | – | 1460 ± 9 | 6.77 ± 0.48
298.15 K, x1 = 0.308 | – | 1450 ± 9 | 8.15 ± 0.57
298.15 K, x1 = 0.3756 | – | 1444 ± 9 | 9.66 ± 0.66
298.15 K, x1 = 0.4494 | – | 1434 ± 9 | 11.38 ± 0.77
298.15 K, x1 = 0.5306 | – | 1428 ± 9 | 13.31 ± 0.89
298.15 K, x1 = 0.6201 | – | 1424 ± 9 | 15.49 ± 1
298.15 K, x1 = 0.6852 | – | 1420 ± 9 | 17.12 ± 1.1
298.15 K, x1 = 0.7552 | – | 1420 ± 9 | 18.87 ± 1.2
298.15 K, x1 = 0.8306 | – | 1426 ± 9 | 20.88 ± 1.4
298.15 K, x1 = 0.912 | – | 1428 ± 9 | 23.1 ± 1.5
298.15 K, x1 = 1 | 1028.39 ± 10 | 1432 ± 9 | 25.8 ± 1.7
303.15 K, x1 = 0.0569 | – | 1462 ± 9 | 2.53 ± 0.22
303.15 K, x1 = 0.1196 | – | 1452 ± 9 | 3.48 ± 0.28
303.15 K, x1 = 0.189 | – | 1442 ± 9 | 4.64 ± 0.35
303.15 K, x1 = 0.2461 | – | 1434 ± 9 | 5.62 ± 0.41
303.15 K, x1 = 0.308 | – | 1426 ± 9 | 6.74 ± 0.48
303.15 K, x1 = 0.3756 | – | 1418 ± 9 | 8.01 ± 0.56
303.15 K, x1 = 0.4494 | – | 1410 ± 9 | 9.41 ± 0.65
303.15 K, x1 = 0.5306 | – | 1404 ± 9 | 11.02 ± 0.75
303.15 K, x1 = 0.6201 | – | 1400 ± 9 | 12.83 ± 0.86
303.15 K, x1 = 0.6852 | – | 1398 ± 9 | 14.18 ± 0.95
303.15 K, x1 = 0.7552 | – | 1398 ± 9 | 15.65 ± 1
303.15 K, x1 = 0.8306 | – | 1400 ± 9 | 17.27 ± 1.1
303.15 K, x1 = 0.9121 | – | 1404 ± 9 | 19.14 ± 1.3
303.15 K, x1 = 1 | 1023.97 ± 10 | 1408 ± 9 | 21.3 ± 1.4
308.15 K, x1 = 0.0569 | – | 1446 ± 9 | 2.33 ± 0.21
308.15 K, x1 = 0.1196 | – | 1436 ± 9 | 3.16 ± 0.26
308.15 K, x1 = 0.189 | – | 1428 ± 9 | 4.12 ± 0.32
308.15 K, x1 = 0.2461 | – | 1418 ± 9 | 4.94 ± 0.37
308.15 K, x1 = 0.308 | – | 1410 ± 9 | 5.85 ± 0.43
308.15 K, x1 = 0.3756 | – | 1402 ± 9 | 6.86 ± 0.49
308.15 K, x1 = 0.4494 | – | 1396 ± 8 | 8.02 ± 0.56
308.15 K, x1 = 0.5306 | – | 1388 ± 8 | 9.35 ± 0.65
308.15 K, x1 = 0.6201 | – | 1384 ± 8 | 10.89 ± 0.74
308.15 K, x1 = 0.6852 | – | 1384 ± 8 | 12.06 ± 0.82
308.15 K, x1 = 0.7552 | – | 1382 ± 8 | 13.39 ± 0.9
308.15 K, x1 = 0.8306 | – | 1384 ± 9 | 14.84 ± 0.99
308.15 K, x1 = 0.9121 | – | 1388 ± 9 | 16.38 ± 1.1
308.15 K, x1 = 1 | 1020.54 ± 10 | 1392 ± 9 | 18.1 ± 1.2
318.15 K, x1 = 0.0569 | – | 1414 ± 9 | 2 ± 0.19
318.15 K, x1 = 0.1196 | – | 1404 ± 8 | 2.63 ± 0.23
318.15 K, x1 = 0.189 | – | 1392 ± 8 | 3.33 ± 0.27
318.15 K, x1 = 0.2461 | – | 1386 ± 8 | 3.93 ± 0.31
318.15 K, x1 = 0.308 | – | 1378 ± 8 | 4.59 ± 0.35
318.15 K, x1 = 0.3756 | – | 1370 ± 8 | 5.34 ± 0.39
318.15 K, x1 = 0.4494 | – | 1362 ± 8 | 6.22 ± 0.45
318.15 K, x1 = 0.5306 | – | 1356 ± 8 | 7.19 ± 0.51
318.15 K, x1 = 0.6201 | – | 1350 ± 8 | 8.32 ± 0.58
318.15 K, x1 = 0.6852 | – | 1348 ± 8 | 9.16 ± 0.63
318.15 K, x1 = 0.7552 | – | 1346 ± 8 | 10.1 ± 0.69
318.15 K, x1 = 0.8306 | – | 1348 ± 8 | 11.1 ± 0.76
318.15 K, x1 = 0.9121 | – | 1352 ± 8 | 12.3 ± 0.83
318.15 K, x1 = 1 | 1012.68 ± 10 | 1356 ± 8 | 13.61 ± 0.92
328.15 K, x1 = 0.0569 | – | 1400 ± 8 | 1.6 ± 0.16
328.15 K, x1 = 0.1196 | – | 1406 ± 8 | 2.24 ± 0.2
328.15 K, x1 = 0.189 | – | 1392 ± 8 | 2.95 ± 0.25
328.15 K, x1 = 0.2461 | – | 1382 ± 8 | 3.51 ± 0.28
328.15 K, x1 = 0.308 | – | 1372 ± 8 | 4.12 ± 0.32
328.15 K, x1 = 0.3756 | – | 1362 ± 8 | 4.77 ± 0.36
328.15 K, x1 = 0.4494 | – | 1352 ± 8 | 5.46 ± 0.4
328.15 K, x1 = 0.5306 | – | 1342 ± 8 | 6.21 ± 0.45
328.15 K, x1 = 0.6201 | – | 1332 ± 8 | 7.02 ± 0.5
328.15 K, x1 = 0.6852 | – | 1326 ± 8 | 7.57 ± 0.53
328.15 K, x1 = 0.7552 | – | 1322 ± 8 | 8.17 ± 0.57
328.15 K, x1 = 0.8306 | – | 1320 ± 8 | 8.8 ± 0.61
328.15 K, x1 = 0.9121 | – | 1322 ± 8 | 9.48 ± 0.66
328.15 K, x1 = 1 | 1004.83 ± 10 | 1324 ± 8 | 10.2 ± 0.7
